Structures are written as SMILES. Values after ≈ are worked out from the molar mass of the structure shown.

One data set concerns the target T1, CDK4/cyclin D1 (Homo sapiens, UniProt P11802).
T1 construct: purchased Life technology
The experiment in a line: Enzyme activity assay CDK4/cyclin D1 (Lance Ultra). Type of data set: biochemical. Particulars: 0.3 nM CDK4/cyclin D1, 350 μM ATP, 180 minutes. As for the experimental part: (§1) CDK4/cyclin D1, CDK6/cyclin D1 (Life technology). ULight labeled polypeptide substrates ULight-4E-BP1 and ULight-MBP (PerkinElmer). Europium labeled anti-myelin basic protein antibody and europium labeled rabbit-derived antibody (PerkinElmer). Envision Multi-label Analyzer (PerkinElmer) for signal detection.
They were respectively dissolved in an enzyme buffer solution comprising: 50 mM hydroxyethylpiperazine ethanesulfuric acid solution at pH 7.5, 1 mM ethylenediaminetetraacetic acid, 10 mM magnesium chloride, 0.01% Brij-35, 2 mM dithiothreitol. After the reaction was begun, the OptiPlate 384-well plate was sealed with a top heat seal film TopSeal-A, and incubated at room temperature for 180 minutes.
(§2) The termination buffer solution of the enzymatic reaction was prepared, and EDTA was dissolved in a 1-fold diluted assay buffer solution. The reaction was terminated and incubated at room temperature for 5 minutes. 5 μL of the assay mixed solution (prepared with europium labeled anti-myelin basic protein antibody and europium labeled rabbit-derived antibody, respectively) was added to the reactions of CDK4/cyclin D1 and CDK6/cyclin D1, respectively, and incubated at room temperature for 60 minutes. The reaction signal was detected by Envision according to the time-resolved fluorescence resonance energy transfer theory.

A further data set addresses T2, CDK6/cyclin D1 (Homo sapiens, UniProt Q00534).
T2 construct: purchased Life technology
As to the kind of experiment: Enzyme activity assay CDK6/cyclin D1 (Lance Ultra). Type of data set: biochemical. Particulars: 0.8 nM CDK6/cyclin D1, 250 μM ATP, 180 minutes. As for the experimental part:
as §1
They were respectively dissolved in an enzyme buffer solution comprising: 50 mM hydroxyethylpiperazine ethanesulfuric acid solution at pH 7.5, 1 mM ethylenediaminetetraacetic acid, 10 mM magnesium chloride, 0.01% Brij-35, 2 mM dithiothreitol. After the reaction was started, the OptiPlate 384-well plate was sealed with a top heat seal film TopSeal-A and incubated at room temperature for 180 minutes.
as §2

In the next data set the test system is NCI-H358 cells. The experiment in a line: Cell viability assay NCI-H358 (CellTiter-Glo). Type of data set: cell-based. As to conditions: Homo sapiens, 168 h; NCI-H358, incubated for 7 days. As for the experimental part: The NCI-H358 cell line is from the cell bank of the Department of Biology of WuXi Apptec Co. Ltd. Envision Multi-Label Analyzer (PerkinElmer).
1) 100 μL of phosphate buffer solution was added to the peripheral wells of the 384-well plate and 40 μL of NCI-H358 cell suspension was added to the other wells containing 250 NCI-H358 cells. The cell plate was then placed in a carbon dioxide incubator and incubated overnight.
2) A 3-fold gradient dilution was subjected to the tested compounds using Echo. Each compound was diluted by 10 concentration gradients (diluted from 25 μM to 1.27 nM), 100 nL of which was added to the corresponding wells of the cell plate. The cell plate was then placed in a carbon dioxide incubator and incubated for 7 days.
3) 20 μL of Promega CellTiter-Glo reagent was added to each well of the cell plate, and shaken for 10 minutes away from light at room temperature to stabilize the luminescence signal. Readings were performed using a PerkinElmer Envision Multi-label Analyzer.
Table 1 provides the inhibitory activity of the compounds of the present invention against the proliferation of H358 cells.

For data set [1], the system named is non-small cell lung cancer NCI-H358 model. As to the kind of experiment: In vivo pharmacodynamic study (2), NCI-H358 model, tumor volume. Further details: species or system BALB/c nude mice. As to conditions: 60 mg/kg orally daily, Table 6-1. As for the experimental part: (§3) The in vivo pharmacodynamic experiments were performed on the BALB/c nude mice implanted subcutaneously with the non-small cell lung cancer NCI-H358 model.
(§4) All of the cages, beddings and water were disinfected before use. All of the animals were permitted free access to a standard certified commercial laboratory diet. A total of 86 mice purchased from Vital River Laboratory Animal Co., LTD, Beijing were used for the study. The animal information of the experiments in Example 34 was as follows: BALB/c nude mice, female, 6-8 weeks, weighing approximately 16-18 g, were placed in a single ventilated cage (4 mice per cage) under a special pathogen free environment. All of the cages, beddings and water were disinfected before use. All of the animals were permitted free access to a standard certified commercial laboratory diet. A total of 56 mice purchased from Shanghai Lingchang Biotechnology Co., Ltd. were used for the study.
(§5) Each mouse was implanted subcutaneously with NCI-H358 tumor cells in the right back for tumor growth. The dosing initiated when the average tumor volume reached about 100-200 mm^3. […] The tumor volume was measured twice a week using a two-dimensional caliper, and the volume was measured in mm^3, calculated by the following the formula: V=0.5 a×b^2, wherein, a and b were the long and short diameters of the tumor, respectively. The antitumor efficacy was determined by dividing the average increase in the tumor volume of the animals treated with the compound by the average increase in the tumor volume of the untreated animals, and the safety of the compound was determined by the change in the body weight of the animal treated with the compound.
TGI: Tumor Growth Inhibition.

A short description of data set [2]: In vivo pharmacodynamic study (2), NCI-H358 model, animal weight. Also on record: species or system BALB/c nude mice. Particulars: 60 mg/kg orally daily. The method, then: as §3, §4, §5
The nature of the next data set: physchem. Particulars: phosphate buffer, pH 7.4, aqueous buffer, kinetic from dmso stock.
Data set [3] is described as follows: Two-way permeability evaluation assay of Caco-2 cells. Particulars: human, Caco-2, pH 7.4.
The next data set has as its system Caco-2 cells. The description is as above. As to conditions: Caco-2.
Data set [4] is described as follows: Thermodynamic solubility test (shake-flask, HPLC). Type of data set: physicochemical. Particulars: phosphate buffer, aqueous buffer, thermodynamic from solid; QC samples, pH 7.4; read-out: Thermodynamic solubility pH 7.4. The method, then:
The thermodynamic solubility of the compounds was determined by the shake-flask method and HPLC. The solubility of the compounds is an important property that affects drug screening of compounds and the absorption of compounds in animals and humans. A saturated solution of the compound was first given and quantitatively tested by HPLC to obtain the solubility of the compound.
50 mM phosphate buffer solution, pH 7.4.
Not less than 2 mg of the sample powder was weighed into a vial of Whatman miniuniprep. If test of the thermodynamic solubility of a sample in multiple buffer solutions is required, an individual vial is required for each test.
450 μL of the buffer solution (pH 7.4) was added to each Whatman miniuniprep vial.
After the addition of the buffer solution, the Whatman miniuniprep cap with a filter was mounted and pressed above the liquid level so that the filter could contact with the buffer solution during shaking.
And the observation of the solution was recorded.
It was shaked at 550 RPM for 24 hours at room temperature (about 22 to 25° C.).
The Whatman Miniunipreps filter cap was pressed to the bottom to give the filtrate of the sample solubility solution. All sample vials should be filtered before and after insoluble substances and their leakage.
The buffer was diluted 50 folds to give a sample diluent.
Three UV standards from low to high concentration were injected into HPLC, followed by the injection of the dilutions and supernatants of the tested compounds. The tested sample was injected twice.

Data set [5] concerns LU-01-0393 lung cancer patient-derived tumor tissue xenograft (PDX). The experiment in a line: In vivo pharmacodynamic study (1), LU-01-0393 PDX. Further details: species or system BALB/c nude mice. Particulars: 60 mg/kg orally daily. As for the experimental part:
The in vivo pharmacodynamic experiments were performed on the BALB/c nude mice implanted subcutaneously with the LU-01-0393 lung cancer patient-derived tumor tissue xenograft (PDX).
BALB/c nude mice, female, 6-8 weeks, weighing approximately 17-21 g, were placed in a single ventilated cage (5 mice per cage) under a special pathogen free environment. All of the cages, beddings and water were disinfected before use. All of the animals were permitted free access to a standard certified commercial laboratory diet. A total of 36 mice purchased from Vital River Laboratory Animal Co., LTD, Beijing were used for the study. Each mouse was implanted subcutaneously with a tumor LU-01-0393 FP4 section (20-30 mm^3) in the right back for tumor growth. The dosing initiated when the average tumor volume reached about 150-200 mm^3. The tumor volume was measured twice a week using a two-dimensional caliper, and the volume was measured in mm^3, calculated by the following the formula: V=0.5 a×b^2, wherein, a and b were the long and short diameters of the tumor, respectively. The antitumor efficacy was determined by dividing the average increase in the tumor volume of the animals treated with the compound by the average increase in the tumor volume of the untreated animals.

T2 sequence (Q00534 whole entry): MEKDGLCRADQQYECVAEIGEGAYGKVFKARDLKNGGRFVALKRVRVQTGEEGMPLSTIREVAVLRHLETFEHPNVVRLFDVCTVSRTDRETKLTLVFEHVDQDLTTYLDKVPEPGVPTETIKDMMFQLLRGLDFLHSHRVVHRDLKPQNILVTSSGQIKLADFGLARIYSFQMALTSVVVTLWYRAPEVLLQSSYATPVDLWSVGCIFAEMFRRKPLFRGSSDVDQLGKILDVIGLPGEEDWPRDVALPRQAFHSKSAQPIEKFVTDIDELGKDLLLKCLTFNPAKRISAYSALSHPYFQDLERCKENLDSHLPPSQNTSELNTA
T2 sequence (P24385 whole entry partner): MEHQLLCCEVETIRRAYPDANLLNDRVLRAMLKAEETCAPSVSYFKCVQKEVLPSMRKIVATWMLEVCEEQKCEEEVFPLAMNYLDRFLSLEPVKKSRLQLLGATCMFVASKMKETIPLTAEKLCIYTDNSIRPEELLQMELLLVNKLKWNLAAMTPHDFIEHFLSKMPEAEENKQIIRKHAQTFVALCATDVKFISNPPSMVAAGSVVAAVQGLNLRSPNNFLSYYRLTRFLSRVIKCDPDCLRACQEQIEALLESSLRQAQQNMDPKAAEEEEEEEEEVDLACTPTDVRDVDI
T1 sequence (P11802 whole entry): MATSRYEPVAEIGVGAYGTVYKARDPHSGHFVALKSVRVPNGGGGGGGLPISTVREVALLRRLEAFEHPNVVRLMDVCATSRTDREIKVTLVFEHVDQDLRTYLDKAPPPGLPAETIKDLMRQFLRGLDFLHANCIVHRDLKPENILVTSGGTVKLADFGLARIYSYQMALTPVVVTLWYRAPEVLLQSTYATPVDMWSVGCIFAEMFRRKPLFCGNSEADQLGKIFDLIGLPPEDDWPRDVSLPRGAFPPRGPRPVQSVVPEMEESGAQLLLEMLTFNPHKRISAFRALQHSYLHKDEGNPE
T1 sequence (P24385 whole entry partner): as the sequence (P24385 whole entry partner) above

Regarding `CC(=O)c1c(C)c2cnc(Nc3cnc(N4CCN(C(C)C)CC4)cn3)cc2n(C2CCCC2)c1=O` [Example 3], it took 6.1 nM to reach half-maximal inhibition against CDK4/cyclin D1 (IC50). Further, on CDK6/cyclin D1, the IC50 – broadly, the concentration that inhibits the measured activity by half – is 2.9 nM. Further, half-maximal inhibition with NCI-H358 cells (IC50) was put at 176 nM. The “Gross tumor volume, 0 day” value in data set [1] (0 day) turned out to be 152 mm^3. In addition, the “Gross tumor volume, 7 days” value in data set [1] (7 days) was determined as 141 mm^3. Moreover, the “Gross tumor volume, 14 days” value in data set [1] (14 days) is recorded as 159 mm^3. In addition, the “Gross tumor volume, 17 days” value in data set [1] (17 days) worked out at 136 mm^3. For the same compound, the “Changes in animal weight, 0 days” value in data set [2] (0 days) is reported as 0.0%. Besides, the “Changes in animal weight, 7 days” value in [2] (7 days) is listed as −1.0%. Further, the “Changes in animal weight, 14 days” value in data set [2] (14 days) came to 0.5%. In addition, in data set [2] (17 days), the “Changes in animal weight, 17 days” value was determined as 0.8%. The solubility (kinetic) (usually solubility judged after dilution from a stock solution rather than from solid) at 24 h in “physchem” came to 171 µM (≈ 83.7 µg/mL). Besides, in [3], the Papp A→B (usually the apparent permeability from the apical to the basolateral side of a cell layer) at 2 h, 2 μM stood at 10.9 ×10⁻⁶ cm/s; the Papp B→A (in general, the apparent permeability from the basolateral to the apical side of a cell layer) at 2 h, 2 μM was 12.4 ×10⁻⁶ cm/s; the efflux ratio (usually the permeability from basolateral to apical divided by that in the opposite direction, in the common usage) at 2 h, 2 μM was 1.14. In the data set on Caco-2 cells, the “Category Efflux transporter substrate” value is on record as “Less” and the “Category Permeability” value is on record as “High”.
Regarding `CC(=O)c1c(C)c2cnc(Nc3cnc(N4CCN(CCN)CC4)cn3)cc2n(C2CCCC2)c1=O` [Example 35], the IC50 on CDK4/cyclin D1 turned out to be 5.06 nM; against CDK6/cyclin D1, 2.97 nM; in the data set on NCI-H358 cells, 189 nM.
For `CC(=O)c1c(C)c2cnc(Nc3cnc(N4CCN(CCO)CC4)cn3)cc2n(C2CCCC2)c1=O` [Example 33] the same measures were 8.62 nM, 4.66 nM and 153 nM.
On the same counts, the results for `CC(=O)c1c(C)c2cnc(Nc3cnc(N4CCN(C(C)C)C(C)(C)C4)cn3)cc2n(C2CCCC2)c1=O` [Example 15] are 5.7 nM, 3.1 nM and 262 nM.
On the same counts, the results for `CC(=O)c1c(C)c2cnc(Nc3cnc(N4CC5CCC(C4)N5C)cn3)cc2n(C2CCCC2)c1=O` [Example 19] are 7 nM, 3.7 nM and 214 nM.
On to `CC(=O)c1c(C)c2cnc(Nc3cnc(N4CCN(C(C)C)[C@@H](C)C4)cn3)cc2n(C2CCCC2)c1=O` [Example 11], for which the half-inhibitory concentration (IC50) was determined as 5.6 nM at CDK4/cyclin D1, 3.1 nM against CDK6/cyclin D1 and 278 nM in the data set with NCI-H358 cells.
On the same counts, the results for `CC(=O)c1c(C)c2cnc(Nc3cnc(C4CCNCC4)cn3)cc2n(C2CCCC2)c1=O` [Example 28] are 8.3 nM, 3.5 nM and 295 nM.
For the compound `CC(=O)c1c(C)c2cnc(Nc3cnc(N4CCN[C@@H](C)C4)cn3)cc2n(C2CCCC2)c1=O` [Example 9, 3-acetyl-1-cyclopentyl-4-methyl-7-[[5-[(3S)-3-methylpiperazin-1-yl]pyrazin-2-yl]amino]-1,6-naphthyridin-2-one], the IC50 at CDK4/cyclin D1 came to 9.1 nM; against CDK6/cyclin D1, 3.4 nM; in the data set on NCI-H358 cells it was 196 nM.
On the same counts, the results for `CC(=O)c1c(C)c2cnc(Nc3cnc(N4CCN(C)C(C)(C)C4)cn3)cc2n(C2CCCC2)c1=O` [Example 14] are 7.1 nM, 2.4 nM and 197 nM.
In the case of `NC(=O)N1c2ccccc2C=Cc2ccccc21` [Carbamazepine, reference compound], the solubility (thermodynamic) – broadly, the concentration in solution at equilibrium with solid – at 24 h in data set [4] was 450 ± 60 µM (≈ 106 µg/mL). Also, in the data set “physchem”, the kinetic solubility at 24 h is 180 ± 15 µM (≈ 42.5 µg/mL).
Regarding `CC(=O)c1c(C)c2cnc(Nc3cnc(N4CCNCC4)cn3)cc2n(C2CCCC2)c1=O` [Example 1, 3-acetyl-1-cyclopentyl-4-methyl-7-[(5-piperazin-1-ylpyrazin-2-yl)amino]-1,6-naphthyridin-2-one], the “Gross tumor volume Day 0” value in data set [5] (Day 0) was 144 mm^3. Further, in [5] (Day 7), the “Gross tumor volume Day 7” value came to 132 mm^3. Besides, the “Gross tumor volume Day 14” value in data set [5] (Day 14) worked out at 182 mm^3. Moreover, the “Gross tumor volume Day 20” value in data set [5] (Day 20) is 212 mm^3.

(Values after patent US10676474B2, “1,6-naphthyridine derivatives as CDK4/6 inhibitor” (CSTONE PHARMACEUTICALS, priority 2016, dated 2020).)
